Source: article PMC10988762, “Inhibition of malaria and babesiosis parasites by putative red blood cell targeting small molecules” (Frontiers in Cellular and Infection Microbiology, 2024)
Where a name gives a salt, the structure may show the parent alone. Read-outs that look alike come from different tables or passages of the source.

Legend:
[1] = tested on: P. falciparum strain 3D7; assay: Inhibitor susceptibility dose-response assay (SYBR-Green I), P. falciparum 3D7; format: cell-based, Plasmodium falciparum; details: Plasmodium falciparum, read-out: IC50 (S.D.), P. falciparum-3D7
Experimental: (§1) The P. falciparum strains 3D7 and Dd2 were obtained from the Walter and Eliza Hall Institute (Melbourne, Australia) and the Malaria Research and Reference Reagent Resource, respectively. […] B. divergens parasites were maintained and assayed in mixed stages without synchronization.
(§2) Ring-stage P. falciparum (1%-parasitemia starting, 1%-hematocrit) and asynchronous B.divergens (0.5%-parasitemia starting, 3%-hematocrit) were incubated with plated compounds for 72h, and ring-stage P. knowlesi (1%-parasitemia starting, 1%-hematocrit) for 48h, before lysis and staining with dye. To quantify the species-specificity of the inhibitors, we divided the range of IC50s across the 4 test lines by the average IC50 across the same lines: inhibitors with increased scores show species-specific activity and reduced scores indicate broad-spectrum, pan-species activity.

[2] = tested on: P. falciparum strain Dd2; assay: Inhibitor susceptibility dose-response assay (SYBR-Green I), P. falciparum Dd2; format: cell-based, Plasmodium falciparum; details: Plasmodium falciparum, read-out: IC50 (S.D.), P. falciparum-Dd2
Experimental: as §1, §2

[3] = tested on: P. knowlesi YH1 strain; assay: microbe, parasite or virus in culture; format: cell-based, Plasmodium knowlesi; details: for IC50: Plasmodium knowlesi, 48 h, read-out: IC50 (S.D.), P. knowlesi
Experimental: as §1, §2

[4] = tested on: BdC9 line of B. divergens; assay: Inhibitor susceptibility dose-response assay (SYBR-Green I), B. divergens; format: cell-based, Babesia divergens; details: Babesia divergens, read-out: IC50 (S.D.), B. divergens
Experimental: as §1, §2

[5] = tested on: RBC; details: RBC assay: PS exposure ref PMID 22907570; read-out: Micromolar IC50 (RBC), PS exposure; cited from earlier work
[6] = in vitro; details: human
[7] = tested on: uninfected RBCs; assay: Cellular phosphatidylserine exposure assay (annexin V flow cytometry);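 as to all read-outs here: flow cytometry recording 10,000 events per condition, gated on single cells, with the two experiments using blood from separate donors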; details: for PS exposure on RBCs, in words: 5x P. falciparum 3D7-IC50, 24, 48, 72h
[8] = tested on: P. falciparum (3D7); assay: Assay for inhibition of parasite proliferation via RBC-targeting (transient exposure of RBCs, wash, then infection); format: cell-based, Plasmodium falciparum; details: for inhibitory activity following transient exposure of RBCs, in words: transient vs continued exposure, dose-response format where stated, n=3
Experimental: All plates were frozen for storage before assay. For assay, duplicate plates were preincubated with donor O+ RBCs at 2% hematocrit at 37°C in 50µL for 4-5 hours. Following preincubation, one but not the other plate in each pair was washed 4X in complete RPMI to dilute inhibitor. We transferred RBCs from both washed and unwashed plates to black, clear bottom 96-well plates (Corning Cat. No. 3904) and supplemented these suspensions with MACS-purified P. falciparum (3D7) schizonts for a starting parasitemia of 0.1% - 0.25% at 1% hematocrit. Following 72h incubation in standard culture conditions, samples were processed for SYBR-Green I signal ([Mandt et al., 2019]). […] To identify host-targeting compounds, we compared DMSO-treated to inhibitor-treated samples (Students t-test, paired). We carried out the assay with 1 µM mefloquine (Sigma-Aldrich Cat. No. M2319) as a control for reversible inhibition. All assays were conducted in biological triplicate, with each experiment utilizing different donor RBCs. For select compounds, we carried out this same assay in a dose-response series (n=3 experiments). Following normalization to DMSO-controls, we assessed inhibitor activity following transient exposure of RBCs by Two-Way ANOVA tests for repeated measures (Graphpad Prism v9): high P values indicate support for the null hypothesis that dose-dependent inhibition is not modulated by dilution after exposure, consistent with a direct inhibitory effect of the compounds on RBCs persisting after transient exposure.

[9] = tested on: P. falciparum 3D7; assay: Co-administration with established antimalarials, IC50 shift; format: cell-based, Plasmodium falciparum; details: P<0.05
Source text: Our experimental compound set is weighted toward kinase inhibitors, reflecting the high degree of small molecule development in this target space.

[10] = tested on: uninfected RBCs; details: 5x P. falciparum 3D7-IC50; 24, 48, 72h
[11] = 3D7, 72h, ring-stage, n=3 experiments (or 2 where indicated with *)
[12] = DD2, 72h, ring-stage, n=3 experiments (or 2 where indicated with *)
[13] = 72h, asynchronous, n=3 experiments (or 2 where indicated with *)
[14] = uninfected RBCs (red blood cells), 1% hematocrit
[15] = 24h, 5x P. falciparum 3D7-IC50, % of RBCs, mean of 2 experiments
[16] = 48h, 5x P. falciparum 3D7-IC50, % of RBCs, mean of 2 experiments
[17] = 72h, 5x P. falciparum 3D7-IC50, % of RBCs, mean of 2 experiments

| Structure (SMILES) | IC50 ([1]; 3D7, 72 h) [µM] | IC50 ([2]; DD2, 72 h) [µM] | IC50 [3] [µM] | IC50 ([4]; 72 h) [µM] | hemolysis at 24 h, 5 x P. falciparum 3D7-IC50 [6, 14] [%] | hemolysis at 48 h, 5 x P. falciparum 3D7-IC50 [6, 14] [%] | hemolysis at 72 h, 5 x P. falciparum 3D7-IC50 [6, 14] [%] | Phosphatidylserine exposure (%) 24h [7, 15] [%] | Phosphatidylserine exposure (%) 48h [7, 16] [%] | Phosphatidylserine exposure (%) 72h [7, 17] [%] | further results |
| --- | --- | --- | --- | --- | --- | --- | --- | --- | --- | --- | --- |
| Nc1ccc(C2CCN(C(=O)c3ccc(Oc4ccc(C(F)(F)F)cc4)cc3)CC2)nn1 [BI 749327] | 25 | 22 | 40 | 30 | – | – | – | – | – | – | – |
| CNC(=O)c1cc(Oc2ccc(NC(=O)Nc3ccc(Cl)c(C(F)(F)F)c3)cc2)ccn1 [Sorafenib] | – | – | 5 | – | – | – | – | – | – | – | IC50 [1, 11]: 4.9 µM; IC50 [2, 12]: 4 µM; IC50 [4, 13]: 2 µM; IC50 [5]: > 10 µM; hemolysis at 24 h, 5 x P. falciparum 3D7-IC50 [6]: -6%; hemolysis at 48 h, 5 x P. falciparum 3D7-IC50 [6]: 16%; hemolysis at 72 h, 5 x P. falciparum 3D7-IC50 [6]: 15%; Phosphatidylserine exposure (%) 24h [7]: 7%; Phosphatidylserine exposure (%) 48h [7]: 12%; Phosphatidylserine exposure (%) 72h [7]: 21% |
| Nc1nc(N)c2nc(-c3cccc(O)c3)c(-c3cccc(O)c3)nc2n1 [TG-100-115] | – | – | 0.8 | – | -1 | 12 | 18 | 2 | 3 | 5 | IC50 [1, 11]: 9 µM; IC50 [2, 12]: 7 µM; antiparasitic activity in vitro, in words, P. knowlesi ([3]; P. knowlesi): submicromolar activity; activity against P. knowlesi stronger than against the other parasite species ([3]; P. knowlesi vs other parasite species): ~ 10 x; IC50 [4, 13]: 13 µM; PS exposure on RBCs, in words [7]: similarly low levels |
| CC(C)CC(O)(CC(C)C)c1cnn(C(=O)N2CCCC2)n1 [AA74-1] | 0.25 | 0.5 | – | 4 | – | – | – | – | 2 | – | hemolysis at 24 h, 5 x P. falciparum 3D7-IC50 [6]: -6%; hemolysis at 48 h, 5 x P. falciparum 3D7-IC50 [6]: -1%; hemolysis at 72 h, 5 x P. falciparum 3D7-IC50 [6]: 2%; Phosphatidylserine exposure (%) 24h [7]: 1%; Phosphatidylserine exposure (%) 72h [7]: 5% |
| OC(c1cc(C(F)(F)F)nc2c(C(F)(F)F)cccc12)C1CCCCN1 (stereo not drawn) [mefloquine] | – | – | – | – | – | – | – | – | – | – | inhibitory activity following transient exposure of RBCs, in words [8]: does not retain antimalarial activity at any dose |
| O=C(O)/C=C/c1cc(Br)c(Br)c(Br)c1Br [Tetrabromocinnamic acid] | > 100 | > 85 | > 80 | > 80 | – | – | – | – | – | – | – |
| CN(C)C[C@@H]1CCn2cc(c3ccccc32)C2=C(C(=O)NC2=O)c2cn(c3ccccc23)CCO1 [Ruboxistaurin] | – | – | 3 | – | -1 | 6 | 14 | 2 | 2 | 6 | IC50 [1, 11]: 0.9 µM; IC50 [2, 12]: 0.9 µM; IC50 [4, 13]: 2.8 µM; reduction in the IC50 of chloroquine in combination with fixed, sublethal dose of test compound [9]: ≤ 2 fold; PS exposure on RBCs, in words [7]: similarly low levels |
| COc1ccc2c(c1)CCC1C2CCC2(C)C(NCCCCCCN3C(=O)C=CC3=O)CCC12 (stereo not drawn) [U-73122] | – | – | 4.4 | – | -3 | 16 | 13 | 5 | 9 | 11 | IC50 [1, 11]: 4 µM; IC50 [2, 12]: 5 µM; IC50 [4, 13]: 20 µM; antimalarial activity retained after transient exposure of RBCs, relative to continuous exposure to inhibitor ([8]; 5x P. falciparum 3D7-IC50, RBC preincubation 4-5 hours then washed, 100% = inhibition with continuous exposure, P<0.01): ≥ 80%; inhibitory activity following transient exposure of RBCs, in words [8]: statistically indistinguishable from inhibition with continued exposure; hemolysis of RBCs, in words [10]: lower levels; PS exposure on RBCs, in words [7]: lower levels |
| CCn1c2ccccc2c2cc(-n3nncc3-c3ccccc3)ccc21 [MBQ-167] | 33 | 23 | 38 | 40 | – | – | – | – | – | – | – |
| Clc1ccc(C(c2ccc(Cl)cc2)n2cc[n+](CC(OCc3ccc(Cl)cc3Cl)c3ccc(Cl)cc3Cl)c2)cc1 (stereo not drawn) [Calmidazolium] | 0.5 | 0.6 | 0.6 | 1.2 | -6 | 7 | 14 | 3 | 4 | 9 | – |
| O=C1Nc2ccc(I)cc2/C1=C/c1cc(Br)c(O)c(Br)c1 [GW5074] | 19 | 13 | 10 | 30 | – | – | – | – | – | – | – |
| Cc1ccc(NC(=O)c2ccc(CN3CCN(C)CC3)cc2)cc1Nc1nccc(-c2cccnc2)n1 [Imatinib mesylate] | – | – | – | – | -2 | 2 | 7 | 2 | 2 | – | Phosphatidylserine exposure (%) 72h [7]: 4% |
| O=C(O)C1=CC(=C(c2ccc(O)c(C(=O)O)c2)c2ccc(O)c(C(=O)O)c2)C=CC1=O [Aurintricarboxylic acid (ATA), Aurintricarboxylic acid] | 37 | 44 | – | 29 | – | – | – | – | – | – | – |
| Cn1nccc1Nc1nccc(-c2cc3c(s2)C(C)(C)N(CCN2CCOCC2)C3=O)n1 [LY3214996] | 5.2 | 5.7 | 6 | 10 | -1 | 13 | 16 | 2 | 2 | 5 | – |
| COC[C@H]1Cn2cc(-c3nc(Nc4ccnn4C)ncc3C)nc2C(=O)N1Cc1ccc(F)c(F)c1 [AZD0364] | 16 | 13 | – | 16 | – | – | – | – | – | – | – |
